Data from US20140364417A1, “METHOD OF TREATING ATRIAL FIBRILLATION” (Gilead Sciences, Inc., priority 2013, published 2014).
Values joined by “and” are separate entries in the source; they are usually repeats but may differ in a detail not shown here. Equal values may be shown once. “Also recorded” adds a separate entry of the source.

Assays:
male Yorkshire pigs [1] = experiment: A-H, H-V, PR and QT intervals during right atrial pacing in anesthetized pigs; type: in vivo; conditions: for increase in PR interval: ivabradine 0.25 mg/kg, 30 min after ivabradine administration; for effect on atrial-His (A-H) interval: right atrial pacing at 180 beats/min, FIG. 6 left panel; for effect on atrial-His (A-H) interval / effect on PR interval: ivabradine 0.25 mg/kg bolus; for effect on PR interval: right atrial pacing at 180 bpm, FIG. 5 upper panel
Protocol: (§1) Data were gathered from male Yorkshire pigs (n=16) weighing 35±2 kg (mean±SEM). The animals were preanesthetized with telazol (4.7 mg/kg, intramuscularly) and then anesthetized with alpha-chloralose (100 mg/kg, i.v., bolus followed by 40 mg/kg/h, i.v., continuous infusion). The animals were intubated and ventilation was maintained between 10-16 breaths/min with volumes between 400-500 mL. Vital signs including core body temperature, heart rate, and oxygen saturation were continuously monitored.
(§2) The right and left femoral veins were cannulated with 7Fr introducer sheaths using the Seldinger technique to insert catheters in the right atrial (RA) appendage for pacing and for positioning the intrapericardial catheter. Arterial blood pressure was continuously monitored from a femoral arterial sheath, and intravenous fluids were administered through the ear vein. The electrocardiogram (ECG) was recorded with a Prucka Cardiolab workstation (GE Medical Systems, Milwaukee, Wis.) from atrial and ventricular sites.
(§3) Ranolazine was given as a 2.4 mg/kg, i.v., bolus followed by continuous infusion of 0.135 mg/kg/min, i.v.
(§4) A nonsteerable, quadripolar electrode catheter (Bard Electrophysiology, Lowell Mass.) was placed in the right atrium (RA) via the femoral vein and a second quadripolar electrode catheter in the right ventricle via the jugular vein. A bipolar electrode was placed in the non-coronary cusp of the aorta through the left carotid artery to record the His bundle electrogram. A pigtail catheter was inserted in the left ventricle via the left femoral artery to record and calculate contractility [left ventricular dP/dt]. Transatrial access was employed to deliver acetylcholine (ACh) into the pericardial space. Specifically, a small puncture was made in the RA appendage with the stiff end of a coronary angioplasty guidewire (0.014-inch Wizdom guidewire, Cordis, Miami, Fla., USA) placed within the lumen of a soft infusion catheter (0.038-inch SOS straight-tip, open-ended angiographic guidewire, Bard Electrophysiology). This wire-within-wire system was advanced as a unit into an 8Fr multipurpose guide catheter (MP2, Boston Scientific, Boston Mass.) previously positioned in the RA appendage via a femoral vein under fluoroscopic guidance and into the pericardial space. The infusion catheter was left in the pericardial space for delivery of ACh and the inner guidewire was removed. Conformation of the infusion catheter on fluoroscopy to the curvature of the heart verified its location within the pericardial space. All of the pericardial fluid was then aspirated with the infusion catheter. Intrapericardial access is associated with a hematocrit <2%, indicating minimum trauma from the atrial puncture (Kumar et al., J Cardiovasc Electrophysiol 2009; 20:796-802). The presence of acetylcholinesterase can rapidly degrade ACh and prevent a sustained response to this neurotransmitter.
The electrical stimulation protocol described below was performed in the control state and after the ivabradine bolus and after ranolazine administration and the combination of ranolazine and ivabradine. Burst pacing was performed after ACh injection into the pericardium and AF was invariably elicited. Ventricular rate during AF was determined by counting the R waves during the 6th minute of AF. Two episodes of AF separated by 10 min were induced to establish control levels.
A Bloom stimulator (Bloom Associates, Reading Pa.) was used to deliver constant-current rectangular stimuli for fixed-rate pacing as well as for delivering premature stimuli. To elicit AF, a burst pacing stimulation with a cycle length of 200 msec was performed. A-H, His-ventricular (H-V), PR and QT interval measurements were made during right atrial pacing at 130 and 180 beats/min.
The statistical tests were carried out with a SAS statistical package (SAS Institute, Cary, N.C.). […]

[2] = system: Acetylcholine Mediated AF Model in Pigs; experiment: Acetylcholine mediated AF model in pigs: dominant frequency, ventricular rate, arterial blood pressure during AF; type: in vivo, pig; conditions: for effect on arterial blood pressure during AF: FIG. 3 and FIG. 4; for effect on dominant frequency of atrial fibrillation / effect on ventricular rate during atrial fibrillation: ivabradine 0.25 mg/kg i.v. bolus; for effect on dominant frequency of atrial fibrillation: ranolazine 2.4 mg/kg bolus + 0.135 mg/kg/min; for effect on dominant frequency of atrial fibrillation / dominant frequency of AF after drug: FIG. 8; for effect on ventricular rate during atrial fibrillation: FIG. 9; for reduction of ventricular rate during AF / ventricular rate during AF after drug: ivabradine 0.25 mg/kg; for reduction of ventricular rate during AF: alone or shortly after ranolazine; for ventricular rate during AF after drug: before drug 269.7±6.2 (ivabradine) and 227.3±14.7 (ranolazine, combination); for dominant frequency of AF after drug: series with ivabradine 0.25 mg/kg, baseline 10.3±1.4 (ivabradine) and 9.0±0.8 (ranolazine, combination)
Protocol: as §1, §2, §3, §4
Atrial fibrillation (AF) was defined as an irregular atrial rhythm with an average cycle length <150 msec at all atrial sites, whereas atrial flutter was defined as a regular atrial rhythm with fixed cycle length >150 msec at all atrial sites. After baseline electrical testing was performed, AF initiation was attempted by decremental burst pacing at each atrial site down to loss of 1:1 capture. ACh (1 mL of 100 mM solution) along with a 1-mL saline flush was injected into the pericardial space via the transatrial infusion catheter. […] After 5 minutes of AF, the pericardial space was lavaged with saline (20 mL) via the transatrial pericardial catheter. At the end of lavage, no further pericardial fluid could be removed. Lavage was performed after 5 minutes of AF in order to minimize the mild systemic hypotension that was occasionally associated with ACh administration. The time to spontaneous termination of AF was recorded.
Dominant frequency of AF was analyzed during the 6th minute after AF initiation using the intracardiac electrograms from the right atrial appendage. […]

male Yorkshire pigs [3] = experiment: Hemodynamic changes in pigs: sinus rate, mean arterial pressure, left ventricular dP/dt; type: in vivo; conditions: for sinus rate after drug: at the time of electrical testing, ivabradine 0.25 mg/kg, before drug 111±4.0 (ivabradine) and 105±5.7 (ranolazine, combination)
Protocol: as §1, §2, §3, §4
The statistical tests were carried out with a SAS statistical package (SAS Institute, Cary, N.C.). Effects on electrophysiologic properties were determined by repeated measures analysis of variance (ANOVA) followed by post-hoc t-tests with Bonferroni correction for multiple comparisons. For mean arterial pressure, heart rate, and dominant frequency during atrial fibrillation, we used paired t-tests to compare effects of agents to baseline. All data are reported as mean±SEM, with P<0.05 considered significant.

[4] = ivabradine 0.25 mg/kg i.v., ranolazine 2.4 mg/kg bolus + 0.135 mg/kg/min, pacing 130 beats/min
[5] = larger series, ivabradine 0.25 mg/kg i.v., ranolazine 2.4 mg/kg bolus + 0.135 mg/kg/min, pacing 180 beats/min, FIG. 6
[6] = pacing 130 beats/min, ranolazine 2.4 mg/kg bolus + 0.135 mg/kg/min
[7] = pacing 180 beats/min, ranolazine 2.4 mg/kg bolus + 0.135 mg/kg/min
[8] = pacing rate 180 beats/min, FIG. 2 (first series)

Row | Structure (SMILES) | increase in A-H interval (male Yorkshire pigs [1]; [4]) [ms] | increase in A-H interval (male Yorkshire pigs [1]; [5]) [ms] | increase in PR interval (male Yorkshire pigs [1]; [6]) [ms] | increase in PR interval (male Yorkshire pigs [1]; [7]) [ms] | increase in A-H interval (male Yorkshire pigs [1]; [8]) | effect on atrial-His (A-H) interval (male Yorkshire pigs [1]) | effect on PR interval (male Yorkshire pigs [1]) | effect on arterial blood pressure during AF [2] | effect on dominant frequency of atrial fibrillation [2] | effect on ventricular rate during atrial fibrillation [2] | ventricular rate during AF after drug [2] [beats/min] | dominant frequency of AF after drug [2] [Hz] | sinus rate after drug (male Yorkshire pigs [3]) [beats/min] | other results
1 | COc1cc2c(cc1OC)CC(=O)N(CCCN(C)C[C@H]1Cc3cc(OC)c(OC)cc31)CC2 [ivabradine, 3-{3-[{[(7S)-3,4-dimethoxybicyclo[4.2.0]octa-1,3,5-trien-7-yl]methyll}-(methyl)amino]propyl}-7,8-dimethoxy-1,3,4,5-tetrahydro-2H-3-benzapenin-2-one] | 15.5 | 22.0 ± 3.5 | 16 ± 3.9 | 20 ± 3.5 | 31 ms and 31.2 ms | increased atrial-His (A-H) interval | increased PR interval | Neither ivabradine (FIG. 4) nor ranolazine (FIG. 3) given alone improves; also recorded: small, not significant decrease | neither drug alone was effective | lowered ventricular rate | 247.2±9.5 | 9±0.7 | 90±3.3 | effect on QT interval (male Yorkshire pigs [1]; right atrial pacing at 130 and 180 beats/min, FIG. 5 lower panel): not altered; also recorded: neither drug nor their combination altered QT interval; effect on His-ventricular (H-V) interval (male Yorkshire pigs [1]; right atrial pacing at 130 and 180 beats/min, FIG. 6 right panel): unchanged; also recorded: neither drug nor their combination altered His-ventricular (H-V) interval; reduction of ventricular rate during AF [2]: 9%; reduction of ventricular rate during AF ([2]; 30 min after drug infusion): 22.5±6.0 beats/min and 22.53±6.0 beats/min; left ventricular (LV) dP/dt after drug (male Yorkshire pigs [3]; at 30 min after drug, pacing at 180 beats/min, baseline 2156±647.4 (ivabradine) and 1864±109.1 (ranolazine, combination)): 2342±486.5 mmHg/sec; effect on mean arterial pressure during sinus rhythm (male Yorkshire pigs [3]; drugs given separately): Neither ivabradine nor ranolazine given separately altered; effect on left ventricular (LV) dP/dt (contractility) (male Yorkshire pigs [3]; pacing at 180 beats/min): not altered
2 | COc1ccccc1OCC(O)CN1CCN(CC(=O)Nc2c(C)cccc2C)CC1 (racemic) [ranolazine, (±)-N-(2,6-dimethylphenyl)-4-[2-hydroxy-3-(2-methoxyphenoxy)-propyl]-1-piperazineacetamide] | 2.0 ± 2.6 | 13.8 ± 3.9 | 5 ± 1.8 | 19 ± 2.8 | 18 ms and 18.4 ms | did not | increased PR interval | Neither ivabradine (FIG. 4) nor ranolazine (FIG. 3) given alone improves; also recorded: no significant improvement | neither drug alone was effective | not reduced; also recorded: did not | 197.1±17.4 | 7.8±0.9 | 96±3.9 | HV interval after drug (male Yorkshire pigs [1]; male, Yorkshire, pig, in vivo): 35 ms; QT interval after drug (male Yorkshire pigs [1]; male, Yorkshire, pig, in vivo): 282 ms; A-H interval after drug (male Yorkshire pigs [1]; representative experiment FIG. 7, pacing 180 beats/min, before drug 100 msec, ranolazine, then ivabradine 0.25 mg/kg): 107 ms; PR interval after drug (male Yorkshire pigs [1]; representative experiment FIG. 7, pacing 180 beats/min, before drug 123 msec): 131 ms; change in arterial blood pressure during AF versus control (Δ Control/drug) ([2]; FIG. 3): 3.36 mmHg; effect on left ventricular (LV) dP/dt (contractility) (male Yorkshire pigs [3]; pig, in vivo): not altered; effect on mean arterial pressure during sinus rhythm (male Yorkshire pigs [3]; pig, in vivo): Neither ivabradine nor ranolazine given separately altered
